From patent US4693884A, “Technetium-99m triphosphonates and tetraphosphonates for the scintigraphic visualization of res-containing organs and lymph vessels, and a process for their preparation” (Hoechst Aktiengesellschaft, priority 1982, dated 1987)
Values belong to the compound of their own block, whether it stands above or below them.

Experiments:
[1] = Accumulation of phosphoric acid derivatives investigated as technetium-99m diagnostic agents (bone, liver, RES); conditions: in vivo
Text: It is possible to use phosphoric acid derivatives, particularly organic phosphonic acid derivatives, for bone scintigraphy. Many compounds have been investigated in the search for derivatives suitable as a technetium-99m diagnostic agent for bone.

[2] = Example 5: organ distribution of 99mTc ETP in rats; format: in vivo, Sprague-Dawley rats; conditions: 30 min, intravenous
Procedure: 1.40 g of ethane-1,1,2,2-tetraphosphonic acid are dissolved in about 20 ml of double-distilled water and the pH of the solution is adjusted to 7.0 using 1N sodium hydroxide solution. The total volume of this solution is adjusted to 100 ml with double-distilled water and, while excluding oxygen, 11 mg of SnCl2.2H2 O in 5 ml of aqueous solution are added. The clear solution thus obtained is sterilized by filtration and filled, in 0.2 ml portions, into snap-closure bottles which have previously been cooled with liquid nitrogen, and is then freeze-dried. The contents are covered with nitrogen and the bottles are closed. A bottle then contains about 3.3 mg of Na salt of ETP (corresponding to about 2.7 mg of ETP) and about 11 μg of tin(II).
The substance is labeled with ^99m Tc by the addition of 5 ml of physiologic saline which contains 1.5 mCi of technetium-99m-pertechnetate.After a reaction time of 15 minutes, three Sprague-Dawley rats each received 0.1 ml of this solution by intravenous injection. 30 minutes later, the animals were sacrificed and the organ distribution of ^99m Tc ETP was measured. The following figures (as percentage of the dose administered) were found from this: […]

[3] = Comparison of 99mTc TPB, 99mTc PTP and 99mTc phytate after intravenous injection to dogs; format: in vivo; conditions: intravenous, dogs; for decrease in activity via the liver after accumulation in the liver is complete: compared with phytate
[4] = Organ distribution of 99mTc-labeled substances in rats 30 minutes after injection as a function of the amount of substance administered; format: in vivo; conditions: for Blood/ml / Kidneys / Liver / Lung / Remainder of body / Spleen / Thyroid / tissue uptake at 0.5 h: 30 min after injection, n = 3; for accumulation in the liver and spleen compared with phytate / accumulation of activity in the kidneys, blood, femur and remainder of the body compared with phytate: all amounts of substance investigated; for suitability as diagnostic agent for visualization of RES-containing organs compared with 99mTc phytate: deduction from the animal experiments; for tissue uptake at 0.5 h: rat, in vivo, iv, 0.05 mg, read-out: Femur/g
Procedure: Assuming that 2-20 mg of TPB, ETP, PTP or phytate are administered to humans, and assuming that the weight of human is 80 kg, this corresponds to an amount administered of 25-250 μg/kg of body weight. Calculating on the basis of the body weight of rats weighing 200 g, then administration of 5-50 μg of TPB, ETP, PTP or phytate per rat exactly reflects the relationships.
Organ distribution of ^99m Tc TPB, ^99m TC ETP and ^99m Tc
phytate in rats (n = 3) 30
minutes after injection as a function of the amount of substance
(all data as a percentage of the amount of activity administered)

[5] = Lymphatic scintigraphy on dogs; format: in vivo, beagle dogs
Procedure: In order to check the utilizability of the new diagnostic agent for lymphatic scintigraphy, lymphatic scintigraphy using ^99m Tc TPB was carried out on dogs.
A TPB labeling unit which contained CaCl2 as described in Example 4 was prepared with 5 ml of ^99m Tc-pertechnetate solution which contained 5 mCi of ^99m Tc per ml. Adult beagle dogs each received 0.3-0.4 ml of this solution injected subcutaneously into the hind paw. The change in the distribution of radioactivity with time over the hind legs was then followed using a gamma camera for 4 hours. The site of injection was shielded with lead in each case.

[6] = Example 2: organ distribution in rats, frozen solution labeled with 99mTc; format: in vivo, Sprague-Dawley rats; conditions: femoral vein
Procedure: 400 mg of 2,4,4-triphosphonobutyric acid are dissolved in about 30 ml of double-distilled water. The pH of the solution, which is about 1.7 after this, is then adjusted to pH 6 using 1N NaOH. 8 mg of SnCl2.2H2 O in 1 ml of 0.1N HCl are added to this solution, and the pH is again adjusted to 6 using 0.1N NaOH, and then the solution is made up to 40 ml. All the operations are carried out under a protective atmosphere of nitrogen gas. The solution thus obtained is frozen in individual 1 ml portions.
After 3 days, the solution is thawed and reacted with 1 ml of a ^99m Tc-pertechnetate solution which contains 4.44 MBq (120 μCi) of ^99m Tc. After 30 minutes, Sprague-Dawley rats weighing 200 g each receive 0.5 ml of this solution injected into the femoral vein. 3 animals are sacrificed with ether at 30 minutes and at 2 hours after the injection, and the organ distribution is determined.

[7] = Example 3: distribution of activity over the organs in rats, lyophilizate; format: in vivo, Sprague-Dawley rats; conditions: 30 min
Procedure: 8 g of sodium 2,4,4-triphosphonobutyrate are dissolved in about 60 ml of double-distilled water, the pH of the solution then being 8.5. After the pH had been adjusted to 7 with 1N HCl, 120 mg of SnCl2.2H2 O in 3 ml of 1N HCl were added, the pH was adjusted to 6 using 0.1N NaOH, and the solution was made up to 160 ml with double-distilled water. All operations should be carried out under a protective atmosphere of nitrogen gas. The solution thus obtained is freeze-dried in individual 1 ml portions in snap-closure bottles which have previously been frozen with liquid nitrogen. The contents are covered with nitrogen and the bottles are closed.
After storage for some weeks, the lyophilizate is dissolved in 10 ml of physiologic saline containing 2 mCi of technetium-99m-pertechnetate. After 30 minutes, 3 Sprague-Dawley rats (about 200 g) each receive 0.1 ml of this solution injected into the femoral vein, and 30 minutes later the animals are sacrificed with ether and the distribution of activity over the organs is determined. The following mean figures (as percentage of the dose administered) result: […]

[8] = second amount column (printed 50 μg)
[9] = third amount column (printed 50 μg)

- accumulation in bone [1]: virtually not at all
SMILES: O=P(O)(O)C(CCC(P(=O)(O)O)P(=O)(O)O)P(=O)(O)O [BTP, butane-1,1,4,4-tetraphosphonic acid]
- accumulation in the liver [1]: very preferentially accumulated in the liver

- total recovered activity [2]: 104.5%
- Blood/ml ([2]; three rats): 0.02 percentage of the dose adminis
- Kidneys ([2]; three rats): 0.12 percentage of the dose adminis
- Liver ([2]; three rats): 96.2 percentage of the dose adminis
- Remainder of body ([2]; three rats): 7.8 percentage of the dose adminis
- Spleen ([2]; three rats): 2.1 percentage of the dose adminis
- Thyroid ([2]; three rats): 0.03 percentage of the dose adminis
- lungs ([2]; three rats): 0.18 percentage of the dose adminis
- decrease in activity via the liver after accumulation in the liver is complete [3]: slower
- accumulation in bone [1]: virtually not at all
- Blood/ml ([4]; (50 μg)): 0.02 percentage of the amount of ac
- Blood/ml [4, 8]: 0.04 percentage of the amount of ac
- Blood/ml [4, 9]: 0.04 percentage of the amount of ac
- accumulation in the liver and spleen compared with phytate [4]: markedly higher than that of phytate
- accumulation of activity in the kidneys, blood, femur and remainder of the body compared with phytate [4]: clearly lower than with phytate
SMILES: O=P(O)(O)C(C(P(=O)(O)O)P(=O)(O)O)P(=O)(O)O [ETP, ethane-1,1,2,2-tetraphosphonic acid]
- accumulation in the liver [1]: very preferentially accumulated in the liver
- Kidneys ([4]; (50 μg)): 0.12 percentage of the amount of activity administered
- Liver ([4]; (50 μg)): 96.2 percentage of the amount of activity administered
- Lung ([4]; (50 μg)): 0.18 percentage of the amount of activity administered
- Remainder of body ([4]; (50 μg)): 7.8 percentage of the amount of activity administered
- Spleen ([4]; (50 μg)): 2.10 percentage of the amount of activity administered
- Thyroid ([4]; (50 μg)): 0.03 percentage of the amount of activity administered
- Kidneys [4, 8]: 0.16 percentage of the amount of activity administered
- Liver [4, 8]: 95.2 percentage of the amount of activity administered
- Lung [4, 8]: 0.21 percentage of the amount of activity administered
- Remainder of body [4, 8]: 11.2 percentage of the amount of activity administered
- Spleen [4, 8]: 2.13 percentage of the amount of activity administered
- Thyroid [4, 8]: 0.03 percentage of the amount of activity administered
- Kidneys [4, 9]: 0.26 percentage of the amount of activity administered
- Liver [4, 9]: 93.6 percentage of the amount of activity administered
- Lung [4, 9]: 0.32 percentage of the amount of activity administered
- Remainder of body [4, 9]: 10.4 percentage of the amount of activity administered
- Spleen [4, 9]: 1.30 percentage of the amount of activity administered
- Thyroid [4, 9]: 0.04 percentage of the amount of activity administered
- suitability as diagnostic agent for visualization of RES-containing organs compared with 99mTc phytate [4]: unambiguously superior

SMILES: O=C(O)C(CC(P(=O)(O)O)P(=O)(O)O)P(=O)(O)O (stereo not drawn) [TPB, 2,4,4-triphosphonobutyric acid]
- suitability for lymphatic scintigraphy [5]: also suitable for lymphatic scintigraphy
- excretion of activity with the urine ([3]; 30 min after injection): 0.6 % of the test dose
- excretion of activity with the urine, compared with phytate [3]: markedly less
- decrease in activity via the liver after accumulation in the liver is complete [3]: slower
- accumulation in bone [1]: virtually not at all
- accumulation in the liver [1]: very preferentially accumulated in the liver
- Blood/ml ([4]; (50 μg)): 0.05 percentage of the amount of ac
- Kidneys ([4]; (50 μg)): 0.12 percentage of the amount of activity administered
- Liver ([4]; (50 μg)): 95.8 percentage of the amount of activity administered
- Lung ([4]; (50 μg)): 0.19 percentage of the amount of activity administered
- Remainder of body ([4]; (50 μg)): 5.6 percentage of the amount of activity administered
- Spleen ([4]; (50 μg)): 1.30 percentage of the amount of activity administered
- Thyroid ([4]; (50 μg)): 0.03 percentage of the amount of activity administered
- Blood/ml [4, 8]: 0.16 percentage of the amount of ac
- Kidneys [4, 8]: 0.37 percentage of the amount of activity administered
- Liver [4, 8]: 92.7 percentage of the amount of activity administered
- Lung [4, 8]: 0.30 percentage of the amount of activity administered
- Remainder of body [4, 8]: 11.5 percentage of the amount of activity administered
- Spleen [4, 8]: 0.88 percentage of the amount of activity administered
- Thyroid [4, 8]: 0.03 percentage of the amount of activity administered
- Blood/ml [4, 9]: 0.19 percentage of the amount of ac
- Kidneys [4, 9]: 0.39 percentage of the amount of activity administered
- Liver [4, 9]: 88.7 percentage of the amount of activity administered
- Lung [4, 9]: 0.29 percentage of the amount of activity administered
- Remainder of body [4, 9]: 12.6 percentage of the amount of activity administered
- Spleen [4, 9]: 0.99 percentage of the amount of activity administered
- Thyroid [4, 9]: 0.03 percentage of the amount of activity administered
- accumulation in the liver and spleen compared with phytate [4]: markedly higher than that of phytate
- accumulation of activity in the kidneys, blood, femur and remainder of the body compared with phytate [4]: clearly lower than with phytate
- suitability as diagnostic agent for visualization of RES-containing organs compared with 99mTc phytate [4]: unambiguously superior
- tissue uptake at 0.5 h [4, 8]: 0.29 %ID/g
- tissue uptake at 0.5 h [4, 9]: 0.3 %ID/g
- Blood/ml ([6]; 30 min p.i.): 0.03 percentage of the dose adminis
- Kidneys ([6]; 30 min p.i.): 1.74 percentage of the dose adminis
- Liver ([6]; 30 min p.i.): 86.5 percentage of the dose adminis
- Remainder of body ([6]; 30 min p.i.): 9.08 percentage of the dose adminis
- Spleen ([6]; 30 min p.i.): 2.40 percentage of the dose adminis
- Thyroid ([6]; 30 min p.i.): 0.05 percentage of the dose adminis
- urine ([6]; 30 min p.i.): 1.75 percentage of the dose adminis
- Blood/ml ([6]; 2 hours p.i.): 0.01 percentage of the dose adminis
- Kidneys ([6]; 2 hours p.i.): 1.12 percentage of the dose adminis
- Liver ([6]; 2 hours p.i.): 88.3 percentage of the dose adminis
- Remainder of body ([6]; 2 hours p.i.): 8.27 percentage of the dose adminis
- Spleen ([6]; 2 hours p.i.): 3.06 percentage of the dose adminis
- Thyroid ([6]; 2 hours p.i.): 0.04 percentage of the dose adminis
- urine ([6]; 2 hours p.i.): 2.02 percentage of the dose adminis
- tissue uptake at 0.5 h ([6]; rat, bone, iv, 30 min p.i.): 0.17 %ID/g
- tissue uptake at 2 h ([6]; rat, bone, iv, 2 hours p.i.): 0.22 %ID/g

SMILES: O=C([O-])C(CC(P(=O)(O)O)P(=O)(O)O)P(=O)(O)O.[Na+] (stereo not drawn) [sodium 2,4,4-triphosphonobutyrate]
- Blood/ml ([7]; femoral vein, mean of 3 rats): 0.03 percentage of the dose adminis
- Kidneys ([7]; femoral vein, mean of 3 rats): 0.08 percentage of the dose adminis
- Liver ([7]; femoral vein, mean of 3 rats): 96.2 percentage of the dose adminis
- Remainder of body ([7]; femoral vein, mean of 3 rats): 4.9 percentage of the dose adminis
- Spleen ([7]; femoral vein, mean of 3 rats): 1.9 percentage of the dose adminis
- Thyroid ([7]; femoral vein, mean of 3 rats): 0.03 percentage of the dose adminis
- lungs ([7]; femoral vein, mean of 3 rats): 0.24 percentage of the dose adminis
- recovered activity total ([7]; related to the dose administered): 103.4%
